Experimental data published in article PMC6405874, “Development of a novel short 12-meric papiliocin-derived peptide that is effective against Gram-negative sepsis” (Scientific Reports, 2019).
Converted amounts (≈) assume the structure as drawn. No end group written: not given here.

Tests used:
A. baumannii (KCTC 2508) = conditions: 1% peptone, 2 × 10^6 CFU/mL, 16 h, 37 °C
Protocol: (§1) The antimicrobial activities of Pap12 peptides were tested against four standard Gram-negative bacteria (E. coli, Pseudomonas aeruginosa, Acinetobacter baumannii, and Salmonella typhimurium), three standard Gram-positive bacteria (Staphylococcus aureus, Bacillus subtilis, and Staphylococcus epidermidis), and five MDR bacteria (MDREC CCARM 1229, MDRPA CCARM 2002, MDRAB CCARM 12035, MDRST CCARM 8007, and MRSA CCARM 3126) using the microbroth dilution method. The relative antibacterial activities were compared based on geometric means of MICs (GM).
(§2) Escherichia coli (KCTC 1682), Pseudomonas aeruginosa (KCTC 2004), Acinetobacter baumannii (KCTC 2508), Salmonella typhimurium (KCTC 1926), Bacillus subtilis (KCTC 3068), Staphylococcus aureus (KCTC 1621), and Staphylococcus epidermidis (KCTC 1917) were purchased from the Korean Collection for Type Cultures, Korea Research Institute of Bioscience & Biotechnology (Taejon, Korea). Clinical isolates of MDR E. coli (MDREC; CCARM 1229), P. aeruginosa (MDRPA; CCARM 2002), A. baumannii (MDRAB; CCARM 12035), S. typhimurium (MDRST; CCARM 8007), and S. aureus (MDRSA; CCARM 3126) were supplied by the Culture Collection of Antibiotic-Resistant Microbe (CCARM) at Seoul Women’s University in Korea. The E. coli K1 strain RS218 (O18:K1:H7) was kindly provided by Dr. Jang-Won Yoon of Kangwon National University (Gangwon-do, Korea).
(§3) Peptides were treated with 2 × 10^6 CFU/mL bacterial suspensions in 1% peptone media for 16 h at 37 °C.

[1] = system: MDRAB 12035 (MDR A. baumannii CCARM 12035); conditions: 1% peptone, 2 × 10^6 CFU/mL, 16 h, 37 °C
Protocol: as §1, §2, §3

[2] = system: MDREC 1229 (MDR E. coli CCARM 1229); conditions: 1% peptone, 2 × 10^6 CFU/mL, 16 h, 37 °C
Protocol: as §1, §2, §3

[3] = system: MDRPA 2002 (MDR P. aeruginosa CCARM 2002); conditions: 1% peptone, 2 × 10^6 CFU/mL, 16 h, 37 °C
Protocol: as §1, §2, §3

[4] = system: MDRST 8007 (MDR S. typhimurium CCARM 8007); conditions: 1% peptone, 2 × 10^6 CFU/mL, 16 h, 37 °C
Protocol: as §1, §2, §3

MRSA 3126 (CCARM 3126) = conditions: 1% peptone, 2 × 10^6 CFU/mL, 16 h, 37 °C
Protocol: as §1, §2, §3

[5] = system: S. epidermidis (KCTC 1917); conditions: 1% peptone, 2 × 10^6 CFU/mL, 16 h, 37 °C
Protocol: as §1, §2, §3

Gram-negative bacteria = conditions: eight Gram-negative strains of Table 2
Protocol: as §1
(§4) The therapeutic index (TI) was calculated (Table 2) using HC10, the peptide concentration required to induce 10% hemolysis.
as §3

Gram-positive bacteria = conditions: four Gram-positive strains of Table 2
Protocol: as §1, §4, §3

[6] = system: human red blood cells (hRBCs); assay: Hemolysis of human red blood cells
Protocol: as §4
The toxicity of peptides to human red blood cells (hRBCs) was determined by measuring the peptide-induced release of haem, and percent hemolysis was calculated as described previously. The peptide-induced cytotoxicity of mouse RAW 264.7 macrophages, human keratinocyte HaCaT cells, and HEK-293 cells were determined by 3-(4,5-dimethylthiazol-2-yl)-2,5-diphenyltetrazolium bromide (MTT) assays as previously described.

[7] = system: mouse macrophage RAW 264.7 cells; assay: MTT cytotoxicity; type: cell-based; conditions: for cell survival: RAW 264.7, MTT
Text: (§5) The toxicities of peptides against mammalian cells were checked by measuring the survival rate of mouse macrophage RAW 264.7 cells, human keratinocyte HaCaT cells, and HEK-293 human embryonic kidney epithelial (HEK-293) cells after treatment with different concentrations of peptides (Fig. 2B–D). […] Since melittin has higher hydrophobicity and a […] amphiphatic moment (µH) than those of Pap12 peptides, as listed in Table 1, its toxicity is much higher than those of Pap12 peptides.

B. subtilis (KCTC 3068) = conditions: 1% peptone, 2 × 10^6 CFU/mL, 16 h, 37 °C
Protocol: as §1, §2, §3

E. coli (KCTC 1682) = conditions: 1% peptone, 2 × 10^6 CFU/mL, 16 h, 37 °C
Protocol: as §1, §2, §3

[8] = system: P. aeruginosa (KCTC 2004); conditions: 1% peptone, 2 × 10^6 CFU/mL, 16 h, 37 °C
Protocol: as §1, §2, §3

S. aureus (KCTC 1621) = conditions: 1% peptone, 2 × 10^6 CFU/mL, 16 h, 37 °C
Protocol: as §1, §2, §3

[9] = system: S. typhimurium (KCTC 1926); conditions: 1% peptone, 2 × 10^6 CFU/mL, 16 h, 37 °C
Protocol: as §1, §2, §3

[10] = system: HEK-293 human embryonic kidney epithelial cells; assay: MTT cytotoxicity; type: cell-based; conditions: HEK-293, MTT, 50 µM
Text: as §5

[11] = system: human keratinocyte HaCaT cells; assay: MTT cytotoxicity; type: cell-based; conditions: 50 µM
Text: as §5

[12] = Survival of non-infected mice given peptide (acute toxicity); type: in vivo, BALB/c mice; conditions: 10 mg/kg i.p., over 4 days, 10 mice
Protocol: To determine the in vivo survival rate, four groups were established with 10 BALB/c mice per group. For the control group, 10 mice were given an intraperitoneal (i.p.) injection with PBS. […] In the third group, 10 mice were i.p. injected with Pap12-6 (10 mg/kg). […] Survival was evaluated for 4 days (0, 6, 12, 18, 24, 30, 36, 48, 60, 72, 84, and 96 h).

Row | Compound | Minimal inhibitory concentration (MIC), A. baumannii (A. baumannii (KCTC 2508)) | Minimal inhibitory concentration (MIC), MDRAB 12035 [1] | Minimal inhibitory concentration (MIC), MDREC 1229 [2] | Minimal inhibitory concentration (MIC), MDRPA 2002 [3] | Minimal inhibitory concentration (MIC), MDRST 8007 [4] | Minimal inhibitory concentration (MIC), MRSA 3126 (MRSA 3126 (CCARM 3126)) | Minimal inhibitory concentration (MIC), S. epidermidis [5] | GM, geometric mean of MICs, Gram-negative bacteria (Gram-negative bacteria) | GM, geometric mean of MICs, Gram-positive bacteria (Gram-positive bacteria) | Minimal inhibitory concentration (MIC), B. subtilis (B. subtilis (KCTC 3068)) | Minimal inhibitory concentration (MIC), E. coli (E. coli (KCTC 1682)) | Minimal inhibitory concentration (MIC), P. aeruginosa [8] | Minimal inhibitory concentration (MIC), S. aureus (S. aureus (KCTC 1621)) | Minimal inhibitory concentration (MIC), S. typhimurium [9] | HC10, peptide concentration resulting in 10% hemolysis of fresh human erythrocytes [6] | also measured
1 | CC[C@H](C)[C@H](NC(=O)CN)C(=O)NCC(=O)N[C@@H](C)C(=O)N[C@H](C(=O)N[C@@H](CC(C)C)C(=O)N[C@@H](CCCCN)C(=O)N[C@H](C(=O)N[C@@H](CC(C)C)C(=O)N[C@H](C(=O)N[C@H](C(=O)NCC(=O)N[C@@H](CC(C)C)C(=O)N1CCC[C@H]1C(=O)N[C@@H](C)C(=O)N[C@@H](CC(C)C)C(=O)N[C@H](C(=O)N[C@@H](CO)C(=O)N[C@@H](Cc1c[nH]c2ccccc12)C(=O)N[C@H](C(=O)N[C@@H](CCCCN)C(=O)N[C@@H](CCCNC(=N)N)C(=O)N[C@@H](CCCCN)C(=O)N[C@@H](CCCNC(=N)N)C(=O)N[C@@H](CCC(N)=O)C(=O)N[C@@H](CCC(N)=O)C(N)=O)[C@@H](C)CC)[C@@H](C)CC)[C@@H](C)O)[C@@H](C)O)C(C)C)C(C)C [Melittin, reference compound] | 8 µM (≈ 22.8 µg/mL) | 4 µM (≈ 11.4 µg/mL) | 8 µM (≈ 22.8 µg/mL) | 4 µM (≈ 11.4 µg/mL) | 8 µM (≈ 22.8 µg/mL) | 2 µM (≈ 5.69 µg/mL) | 4 µM (≈ 11.4 µg/mL) | 6 µM | 3 µM | – | – | – | – | – | – | toxicity against hRBCs (in words) ([6]; hRBCs): highly toxic; cytotoxicity against mammalian cells (in words) ([7]; MTT, RAW 264.7, HaCaT and HEK-293 cells (Fig. 2B-D)): displayed cytotoxicity at very low concentrations
2 | RWKIFKKAAKKA-NH2 [Pap12-4] | 32 µM | 16 µM | 32 µM | 32 µM | 16 µM | 32 µM | 32 µM | 22 µM | 22 µM | 16 µM | 8 µM | 8 µM | 8 µM | 32 µM | 200 µM | –
3 | RWKIFKKAAKKG-NH2 [Pap12-2] | 32 µM | 16 µM | 32 µM | 16 µM | 16 µM | 16 µM | 32 µM | 18 µM | 20 µM | 16 µM | 8 µM | 8 µM | 16 µM | 16 µM | 200 µM | –
4 | RWKIFKKIEKVG-NH2 [Pap12-1] | 64 µM | 16 µM | 64 µM | 16 µM | 32 µM | 64 µM | 64 µM | 35 µM | 52 µM | 64 µM | 16 µM | 8 µM | 16 µM | 64 µM | 200 µM | –
5 | RWKIFKKVVKKA-NH2 [Pap12-5] | 8 µM | 8 µM | 16 µM | 16 µM | 16 µM | 16 µM | 16 µM | 14 µM | 14 µM | 16 µM | 8 µM | 8 µM | 8 µM | 32 µM | 200 µM | –
6 | RWKIFKKVVKKG-NH2 [Pap12-3] | 16 µM | 16 µM | 16 µM | 32 µM | 16 µM | 16 µM | 16 µM | 16 µM | 14 µM | 16 µM | 8 µM | 8 µM | 8 µM | 16 µM | 200 µM | –
7 | RWKIFKKVVKKW-NH2 [Pap12-6] | 4 µM | 4 µM | 8 µM | 8 µM | 8 µM | 8 µM | 8 µM | 6 µM | 7 µM | 8 µM | 4 µM | 4 µM | 4 µM | 8 µM | 100 µM | cytotoxicity (in words) [10]: no cytotoxicity; cytotoxicity (in words) [11]: no cytotoxicity; cell survival ([7]; 50 µM): 80%; cell survival ([7]; up to 25 µM): 100%; survival of non-infected mice (lack of acute toxicity) [12]: all mice survived
